Patent US20240271082A1, “[…]-MODIFIED SAC[…] STRAINS AS PR[…] […] AGENTS” (Fzata, Inc., priority 2021, published 2024)

How the values were obtained:
S. boulardii (Sb) = experiment: Methotrexate effective dose in S. boulardii; assay type: cell-based; conditions: MTX alone, up to 500 nM, 24 hour reading
Method: Cells were seeded at OD=0.2, 24 hour reading.

hTNF-α = hTNF-α (Homo sapiens, UniProt P01375); experiment: Neutralization of human TNF-α cytotoxicity on L929 cells; conditions: read-out: IC50, block hTNF-α-induced cytotoxicity
Sequence of hTNF-α (P01375 77-233 limits assumed): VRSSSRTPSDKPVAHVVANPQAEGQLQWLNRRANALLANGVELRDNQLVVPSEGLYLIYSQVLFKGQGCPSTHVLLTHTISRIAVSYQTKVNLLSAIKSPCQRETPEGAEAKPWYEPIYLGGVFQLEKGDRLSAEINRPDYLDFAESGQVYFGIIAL
Method: After 24h incubation, the antibody-mediated inhibitions of cytotoxicity were measured.

[1] = system: patients with COVID-19 pneumonia and systemic hyperinflammation; conditions: human, in vivo; cited from earlier work
Crohn's disease = conditions: systemic administration; cited from earlier work

Compound: CN(Cc1cnc2nc(N)nc(N)c2n1)c1ccc(C(=O)N[C@@H](CCC(=O)O)C(=O)O)cc1 [MTX, methotrexate]
- growth inhibition of S. boulardii (S. boulardii (Sb)): not enough to cause an effect on growth inhibition

Compound: Adalimumab [Humira]
- IC50 (hTNF-α): 0.028 nM

Compound: Mavrilimumab: investigational fully-human monoclonal antibody that targets GM-CSF receptor alpha
- proportion of patients alive and off oxygen therapy at day 14 [1]: hyperinflammation. Unfortunately, there was no significant difference

Compound: infliximab: anti-TNF monoclonal antibody
- clinical response in Crohn's disease (Crohn's disease): drastic clinical improvement
